Laboratory results taken from patent US20230286956A1 (DUKSUNG WOMEN'S UNIVERSITY INDUSTRY-ACADEMIC COOPERATION …, priority 2020, published 2023).

What was measured:
[1] = Single acute toxicity evaluation 2 (2000 mg/kg oral); type: in vivo, ICR mice
Protocol: Acute toxicity properties after single administration of the compounds of the present invention were evaluated in an animal model.

[2] = test system: wild-type red mold strain GZ3639; test: Inhibition of spore germination / reactive oxygen species generation through NOX enzyme inhibition in red mold; type: cell-based; conditions: 24 h, read-out: IC50 (µM), compound concentration at which the spore germination inhibition rate was 50%
Protocol: When NADPH oxidase (NOX), which is involved in the generation of reactive oxygen species in red mold, is inhibited, normal mycelial growth is inhibited, abnormal form of monocyclic conidia is formed, and germination is inhibited. The abnormal phenotype caused by the reduction of reactive oxygen species in red mold can be easily observed under an optical microscope. Through this, the ability to inhibit generation of reactive oxygen species through NOX inhibition was evaluated.
Specifically, for the evaluation of compound activity, 0.1 mM of the compound was added to a minimum medium (MM20) spore suspension diluted to ⅕. Spores ([…]) of wild-type red mold strain GZ3639 were inoculated into the medium and cultured at 25° C. for 24 h, followed by microscopic observation. Compounds having a germination inhibition rate and microcycle conidiation to be 50% or more of those in normal germination were selected, and their activities were evaluated at concentrations of 50 µM, 25 µM, and 10 µM. At this time, the activity of substances having a germination inhibition rate of 95% at 10 µM was further evaluated at concentrations of 5 µM, 1 µM, 0.5 µM, and 0.1 µM. Based on the result of this evaluation, the compound concentration (inhibitory concentration 50%, IC50) at which the spore germination inhibition rate was 50% was determined.

CN1C(=[Se])N(CCc2ccccc2)C(=O)C1=Cc1ccc(N2CCOCC2)cc1 [Compound 1ahs]
change in body weight ([1]; day 0): 100 | change in body weight ([1]; day 2): 97.6 | change in body weight ([1]; day 4): 100.0 | change in body weight ([1]; day 8): 103.8 | change in body weight ([1]; day 10): 104.5 | change in body weight ([1]; day 14): 105.0

CCCCCCN1C(=O)/C(=C\c2ccc(NCCOCCF)cc2)N(C)C1=[Se] [Compound 67, 5-(4-((2-(2-fluoroethoxy)ethyl)amino)benzylidene)-3-hexyl-1-methyl-2-selenoxoimidazolidine-4-on]
IC50 [2]: 0.45 µM

CN1C(=[Se])N(C2CCCC2)C(=O)/C1=C\c1ccc(O)cc1O [Compound 68, 3-cyclopentyl-5-(2,4-dihydroxybenzylidene)-1-methyl-2-selenoxoimidazolidine-4-on]
IC50 [2]: 3 µM

CN1C(=[Se])N(C2CCCC2)C(=O)/C1=C\c1cccc(O)c1O [Compound 69, 3-cyclopentyl-5-(2,3-dihydroxybenzylidene)-1-methyl-2-selenoxoimidazolidine-4-on]
IC50 [2]: 14 µM

CN1C(=[Se])N(C2CCCC2)C(=O)/C1=C\c1ccc(N(C)C)cc1 [Compound 70, 3-cyclopentyl-5-(4-(dimethylamino)benzylidene)-1-methyl-2-selenoxoimidazolidine-4-on]
IC50 [2]: 26 µM

CN1C(=[Se])N(C2CCCC2)C(=O)/C1=C\c1ccc(O)c(O)c1 [Compound 71, 3-cyclopentyl-5-(3,4-dihydroxybenzylidene)-1-methyl-2-selenoxoimidazolidine-4-on]
IC50 [2]: 26 µM

CN1C(=[Se])N(c2ccc(F)cc2)C(=O)/C1=C\c1ccc(N(C)C)cc1 [Compound 75, 5-(4-(dimethylamino)benzylidene)-3-(4-fluorophenyl)-1-methyl-2-selenoxoimidazolidine-4-on]
IC50 [2]: 23 µM

CN1C(=[Se])N(CCCN2CCOCC2)C(=O)/C1=C\c1ccc(Cl)cc1 [Compound 85, 5-(4-chlorobenzylidene)-1-methyl-3-(3-morpholinopropyl)-2-selenoxoimidazolidine-4-on]
IC50 [2]: 5 µM

CN1C(=[Se])N(CCCCCCF)C(=O)/C1=C\c1cc(O)cc(O)c1 [Compound 88]
IC50 [2]: 18 µM

CN1C(=[Se])N(CCCCCF)C(=O)/C1=C\c1ccc(O)cc1O [Compound 89, 5-(2,4-dihydroxybenzylidene)-3-(5-fluoropentyl)-1-methyl-2-selenoxoimidazolidine-4-on]
IC50 [2]: 13 µM

CCCCCN1C(=O)/C(=C\c2ccc(O)cc2O)N(C)C1=[Se] [Compound 93, 5-(2,4-dihydroxybenzylidene)-1-methyl-3-pentyl-2-selenoxoimidazolidine-4-on]
IC50 [2]: 2.9 µM

CCN1C(=[Se])N(c2ccccc2)C(=O)/C1=C\c1ccc(O)cc1O [Compound 95, 5-(2,4-dihydroxybenzylidene)-1-ethyl-3-phenyl-2-selenoxoimidazolidine-4-on]
IC50 [2]: 22 µM

CCN1C(=[Se])N(c2ccccc2)C(=O)/C1=C\c1cccc(O)c1O [Compound 96, 5-(2,3-dihydroxybenzylidene)-1-ethyl-3-phenyl-2-selenoxoimidazolidine-4-on]
IC50 [2]: 44 µM

CCc1ccc(N2C(=O)/C(=C\c3ccc(Br)cc3)N(CC)C2=[Se])cc1 [Compound 101, 5-(4-bromobenzylidene)-1-ethyl-3-(4-ethylphenyl)-2-selenoxoimidazolidine-4-on]
IC50 [2]: 45 µM

CCc1ccc(N2C(=O)/C(=C\c3ccc(N4CCCC4)cc3)N(CC)C2=[Se])cc1 [Compound 102, 1-ethyl-3-(4-ethylphenyl)-5-(4-pyrrolidine-1-yl)benzylidene-2-selenoxoimidazolidine-4-on]
IC50 [2]: 40 µM

O=C1/C(=C\c2cccc(O)c2O)N(Cc2ccccc2)C(=[Se])N1c1ccccc1 [Compound 104, 1-benzyl-5-(2,3-dihydroxybenzylidene)-3-phenyl-2-selenoxoimidazolidine-4-on]
IC50 [2]: 23 µM

O=C1/C(=C\c2ccc(O)c(O)c2)N(Cc2ccccc2)C(=[Se])N1c1ccccc1 [Compound 106, 1-benzyl-5-(3,4-dihydroxybenzylidene)-3-phenyl-2-selenoxoimidazolidine-4-on]
IC50 [2]: 34 µM

O=C1/C(=C\c2cc(O)cc(O)c2)N(Cc2ccccc2)C(=[Se])N1c1ccccc1 [Compound 107, 1-benzyl-5-(3,5-dihydroxybenzylidene)-3-phenyl-2-selenoxoimidazolidine-4-on]
IC50 [2]: 23 µM

CCc1ccc(N2C(=O)/C(=C\c3ccc(O)cc3O)N(Cc3ccccc3)C2=[Se])cc1 [Compound 108, 1-benzyl-5-(2,4-dihydroxybenzylidene)-3-(4-ethylphenyl)-2-selenoxoimidazolidine-4-on]
IC50 [2]: 22 µM

CCc1ccc(N2C(=O)/C(=C\c3ccc(O)c(O)c3)N(Cc3ccccc3)C2=[Se])cc1 [Compound 109, 1-benzyl-5-(3,4-dihydroxybenzylidene)-3-(4-ethylphenyl)-2-selenoxoimidazolidine-4-on]
IC50 [2]: 29 µM

CCc1ccc(N2C(=O)/C(=C\c3cc(O)cc(O)c3)N(Cc3ccccc3)C2=[Se])cc1 [Compound 110, 1-benzyl-5-(3,5-dihydroxybenzylidene)-3-(4-ethylphenyl)-2-selenoxoimidazolidine-4-on]
IC50 [2]: 23 µM

O=C1/C(=C\c2cccc(O)c2O)N(Cc2ccccc2)C(=[Se])N1c1ccc(Cl)cc1 [Compound 111, 1-benzyl-3-(4-chlorophenyl)-5-(2,3-dihydroxybenzylidene)-2-selenoxoimidazolidine-4-on]
IC50 [2]: 26 µM

O=C1/C(=C\c2ccc(O)c(O)c2)N(Cc2ccccc2)C(=[Se])N1c1ccc(Cl)cc1 [Compound 112, 1-benzyl-3-(4-chlorophenyl)-5-(3,4-dihydroxybenzylidene)-2-selenoxoimidazolidine-4-on]
IC50 [2]: 31 µM
